Patent publication US7674579B2, “Apoptosis-based evaluation of chemosensitivity in cancer patients” (Yale University, priority 2003, dated 2010)

Legend:
[1] = test system: A2780 ovarian cancer cells; assay: Western blot for activated caspase-3, A2780 cells; assay type: cell-based, human
Procedure: (§1) Cells were treated with drug as described above. Cells were then scraped from the culture vessel, pelleted at 2000 rpm at room temperature and lysed in phosphate buffered saline with 1% NP40, 0.1% sodium dodecyl sulfate. After 20 min on ice, debris was removed by centrifugation at 14,000×g at 4° C.
(§2) Protein concentration was determined and 20 μg samples were denatured in sample buffer (2.5% SDS, 10% glycerol, 5% b-mercaptoethanol, 0.15 M Tris (pH 6.8) and 0.01% broinophenol blue) and subjected to 10 or 12% SDS-PAGE. Proteins were transferred to PVDF membranes (Immobilon, Millipore, Bedford, Mass.) at 100V for 105 min.
(§3) Western blots were performed as previously described (32) (28). Antibodies and concentrations were: rabbit anti-actin (Sigma, 1:10,000), rabbit anti-proform caspase-3 (Santa Cruz, Santa Cruz Calif. 1:1000), rabbit anti-cleaved-caspase-3 (CellSignaling, 1:1000). Antibody binding was determined by enhanced chemiluminescence detection of peroxidase conjugated secondary antibodies (Vector).

A2780 cells = assay: Caspase-3 assay (dose response and time course), A2780 cells; assay type: cell-based, human
Procedure: (§4) Ovarian cancer cell lines HEY (gift from Dr. J M Trent, (26)), A2780 and CP70 (gifts from Dr. T C Hamilton, (27)) were cultured at 37° C. in a 5% CO2 atmosphere. Culture medium varied with the cell line: DME/F12 plus 1% calf serum (HEY); DME/F12 plus 10% FBS, 584 ug/ml L glutamine (A2780 and CP70). All formulations contained 100 μg/ml streptomycin, 62.5 μg/ml penicillin and 2.5 μg/ml amphotericin. Primary cells were cultured in 50% 199 media and 50% MCDB 105 media (Sigma), supplemented with 10% fetal bovine serum (Hyclone, South Logan, Utah), 10 mM HEPES, 0.1 mM MEM non-essential amino acids, 1 mM sodium pyruvate, 100 nM penicili/streptomycin (Gibco) and 4 ng/ml EGF (Sigma). […]
(§5) After drug treatment, cells were lysed and collected in cold 10 mM Tris, pH 7.5, 10 mM Na Phosphate buffer, 130 mM NaCl, 1% Triton X-100, 10 mM Na Pyrophosphate plus freshly added Protease Inhibitor Cocktail (20 μl/ml, Sigma P8340) and 2 MM PMSF. […] Protein concentration was determined by BioRad Protein Assay (BioRad).
(§6) Caspase-3 activity was measured in duplicate from 50 μg cell lysate samples (lysate comprised less than 20% of the total reaction volume)(Promega Corp. CaspACE™ Assay System, Colorimetric). […] Absorbance of the cleaved product was read at 405 nm in a Dynatech MR3000 plate reader. Blank values were subtracted and caspase-3 activity was expressed as the absorbance at 405 nm of the cleaved substrate (pNA). […]

CP70 = assay: Clonogenic assay, CP70 cell line; assay type: cell-based, human
Procedure: (§7) Ovarian cancer cell lines HEY (gift from Dr. J M Trent, (26)), A2780 and CP70 (gifts from Dr. T C Hamilton, (27)) were cultured at 37° C. in a 5% CO2 atmosphere. Culture medium varied with the cell line: DME/F12 plus 1% calf serum (HEY); DME/F12 plus 10% FBS, 584 ug/ml L glutamine (A2780 and CP70). All formulations contained 100 μg/ml streptomycin, 62.5 μg/ml penicillin and 2.5 μg/ml amphotericin. Primary cells were cultured in 50% 199 media and 50% MCDB 105 media (Sigma), supplemented with 10% fetal bovine serum (Hyclone, South Logan, Utah), 10 mM HEPES, 0.1 mM MEM non-essential amino acids, 1 mM sodium pyruvate, 100 nM penicili/streptomycin (Gibco) and 4 ng/ml EGF (Sigma). For drug treatments, approximately 1×10^5 cells in exponential growth were sub-cultured in a 25 cm^2 flask per treatment. Carboplatin (Sigma C2538) or paclitaxel (Sigma T7402) was added to the media after the cells reached 60-70% confluence as described in the Results.
Cells were seeded at 600 per 60 mm culture dish and incubated overnight to establish adherence then exposed to varying concentrations of drug for 4 hours. Medium was replaced and incubation was continued for 10-14 days. The cells were washed with 0.9% saline solution then fixed and stained in 72% methanol, 10% formaldehyde, 0.25% crystal violet. Colonies greater than 30 cells were counted. Percent survival was calculated based on the number of colonies in untreated dishes. Each treatment was done at least in duplicate.

EOC cells RI82S = assay: TUNEL assay, EOC cells R182S; assay type: cell-based, human
Procedure: (§8) To avoid loss of the apoptotic cells, which detach from monolayer culture and are washed away, cells were cultured in suspension above a one ml layer of 1% agarose per well of a 6-well plate. Two ml of cells at 1×10^5/ml growth medium were placed in each well and incubated at 37° C. with 5% CO2. Plates were agitated gently once per day. After drug exposure for 4 hr, the cells were centrifuged, resuspended in fresh medium and returned to the same wells for 48 hr. Cells were centrifuged at 1000 rpm for 10 min, resuspended in 0.5 ml 10% neutral buffered formalin and incubated at room temperature for 10 min. Centrifugation was repeated and cells were resuspended in 80% ethanol. A 25 μl aliquot was pipeted onto a glass slide and dried at room temperature until no moisture was evident. Cells were calorimetrically stained with TUNEL assay reagents (Trevigen) according to the protocol provided by the manufacturer.

EOC R182 cells = assay: Western blot for activated caspase-3, EOC R182 cells; assay type: cell-based, human
Procedure: as §1, §2, §3

EOC cells S 103 = assay: TUNEL assay, EOC cells S103; assay type: cell-based, human; conditions: S 103 cells
Procedure: as §8

[2] = test system: Three established ovarian cancer cell lines and 19 ovarian cancer patient-derived cell samples; assay: Caspase-3 assay, distribution of apoptotic response over 22 cases; assay type: cell-based, human; conditions: of 22 cases, drugs tested separately
Procedure: Ovarian cancer cell lines HEY (gift from Dr. J M Trent, (26)), A2780 and CP70 (gifts from Dr. T C Hamilton, (27)) were cultured at 37° C. in a 5% CO2 atmosphere. Culture medium varied with the cell line: […] All formulations contained 100 μg/ml streptomycin, 62.5 μg/ml penicillin and 2.5 μg/ml amphotericin. […] For drug treatments, approximately 1×10^5 cells in exponential growth were sub-cultured in a 25 cm^2 flask per treatment. […] With informed consent from 28 patients undergoing routine procedures at Yale-New Haven Hospital 100 to 200 ml of ascites fluid or pelvic washings were obtained. Epithelial cells were collected as previously described (28). Briefly, samples were centrifuged and the cellular pellet was resuspended in Hank's Balanced Salt Solution (HBSS; Gibco Invitrogen, Carlsbad, Calif.). The suspension was centrifuged at 1500 rpm for 10 mins at room temperature. The pellet was then resuspended in HBSS and layered onto LSM lymphocyte separation medium (ICN Biomedicals Inc, Aurora, Ill.) and centrifuged at 2000 rpm for 25 minutes at room temperature. The mononuclear cell-containing layer was collected and incubated with an anti-CD45 mAb conjugated to magnetic beads (Dynal, Oslo, Norway) at 4° C. with rotation for 30 minutes. Following this incubation, the cells were placed into a magnet and the unbound epithelial cells were collected, washed and placed into culture media. […] Remaining cells were cultured in primary culture medium as described above and evaluated for morphological evidence of malignancy by a pathologist. Viable, malignant cells were isolated from 21 of the 28 samples. In agreement with Lounis et al. (29), any fibroblastic cells in the isolated population disappeared after 2 to 3 passages and cells survived on average for 7 to 8 passages. […] Lysates were incubated on ice for 30 min, mixing every 5 min by gentle vortexing. […] Supernatants were frozen and stored at -70° C. Protein concentration was determined by BioRad Protein Assay (BioRad). […] CaspACETM Assay System, Colorimetric). […] Plates were incubated at 37° C. for 4 hr. Absorbance of the cleaved product was read at 405 nm in a Dynatech MR3000 plate reader. Blank values were subtracted and caspase-3 activity was expressed as the absorbance at 405 nm of the cleaved substrate (pNA). Drug treated samples were compared with samples which had not been treated to give a value called relative activity.

CP70 cells [3] = assay: Western blot for activated caspase-3, CP70 cells; assay type: cell-based, human
Procedure: as §1, §2, §3

CP70 cells [4] = assay: Caspase-3 assay (dose response and time course), CP70 cells; assay type: cell-based, human; conditions: CP70, 0.1 μM, 30 hours treatment
Procedure: as §4, §5, §6

HEY = assay: Clonogenic assay, HEY cell line; assay type: cell-based, human
Procedure: as §7
(§9) Cells were seeded at 600 per 60 mm culture dish and incubated overnight to establish adherence then exposed to varying concentrations of drug for 4 hours. Medium was replaced and incubation was continued for 10-14 days. […] Colonies greater than 30 cells were counted. Percent survival was calculated based on the number of colonies in untreated dishes. […]

A2780 = assay: Clonogenic assay, A2780 cell line; assay type: cell-based; conditions: Homo sapiens, clonogenic survival, 4 hours drug exposure, 10-14 days
Procedure: as §7, §9

[5] = test system: invasive ovarian carcinoma; conditions: of 13 patients
From the text: Patients were monitored for disease recurrence based on physical symptoms, physical examination, CA-125 levels and radiologic imaging. Chemosensitivity is defined as no evidence of disease recurrence, based on the above monitoring, within 6 months of completing the chemotherapy regimen of carboplatin and paclitaxel. Sensitivity of six months is commonly used to define which patients are platinum-sensitive in order to direct second-line therapy (30).

N.N.O=C([O-])C1(C(=O)[O-])CCC1.[Pt+2] [Carboplatin]
expression of the active forms of caspase-3 ([1]; A2780, carboplatin treatment): moderate levels
caspase-3 activity (A2780 cells; A2780, 24 hour exposure): significant caspase-3 activity
caspase-3 activity (A2780 cells; A2780, 48 hour treatment, 100 μg/ml): Optimal activity
resistance of CP70 relative to A2780 (CP70; clonogenic IC50, CP70 vs A2780): about 25 fold
percentage of TUNEL-positive cells (EOC cells RI82S; 100 μg/ml): 90%
expression of the active forms of caspase-3 (EOC R182 cells; EOC R182, 100 μg/ml for 48 hr): No active forms of caspase-3 are present
percentage of cells that stain for apoptosis (TUNEL) (EOC cells S 103; 100 μg/ml): 30.40%
Number of Cases Resistant (no increase of caspase-3 activity) [2]: 1
Number of Cases Sensitive (increased caspase-3 activity relative to untreated samples) [2]: 21
Number of Cases Resistant (no increase of caspase-3 activity) ([2]; listed as carboplatin): one
expression of the active forms of caspase-3 (CP70 cells [3]; CP70, 100 μg/ml for 48 hr): No active forms of caspase-3 are present

CC(=O)O[C@H]1C(=O)[C@@]2(C)[C@H]([C@H](OC(=O)c3ccccc3)[C@]3(O)C[C@H](OC(=O)[C@H](O)[C@@H](NC(=O)c4ccccc4)c4ccccc4)C(C)=C1C3(C)C)[C@]1(OC(C)=O)CO[C@@H]1C[C@@H]2O [Paclitaxel]
caspase-3 activity (CP70 cells [4]): significant caspase-3 activity
expression of the active forms of caspase-3 ([1]; A2780, paclitaxel treatment): high levels
relative response among the three cell lines (HEY; HEY cells, clonogenic assay): most resistant
IC50 (HEY; Homo sapiens, HEY, clonogenic survival, 4 hours drug exposure, 10-14 days): 0.1 µM
relative response among the three cell lines (CP70; CP70 cells, clonogenic assay): most sensitive
IC50 (CP70; Homo sapiens, CP70, clonogenic survival, 4 hours drug exposure, 10-14 days): 0.0186 µM
increase in number of TUNEL-positive cells compared to the untreated controls (EOC cells RI82S; 0.1 μM): 30-40%
expression of the active forms of caspase-3 (EOC R182 cells; EOC R182, 0.1 μM for 30 hr): no expression of caspase-3 active forms
IC50 (A2780): 0.0437 µM
increase in number of TUNEL-positive cells compared to the untreated controls (EOC cells S 103; 0.1 μM): 10-20%
Number of Cases Resistant (no increase of caspase-3 activity) [2]: 12
Number of Cases Sensitive (increased caspase-3 activity relative to untreated samples) [2]: 10
Number of Cases Resistant (no increase of caspase-3 activity) ([2]; listed as paclitaxel): Twelve
Number of Cases Sensitive (increased caspase-3 activity relative to untreated samples) ([2]; listed as paclitaxel): Ten
expression of the active forms of caspase-3 (CP70 cells [3]; CP70, 0.1 μM for 30 hr): induces the expression of the active forms of caspase-3

Carboplatin and Paclitaxel
number of patients clinically responsive (chemo-sensitive) ([5]; no evidence of disease recurrence for 6 months following completion of the regimen): seven
number of patients chemo-resistant ([5]; recurrence within 6 months of completing the regimen): six
Number of Cases Resistant (no increase of caspase-3 activity) [2]: 1
Number of Cases Sensitive (increased caspase-3 activity relative to untreated samples) [2]: 10
